Laboratory results taken from patent publication US8309768B2, “FTY720-derived anticancer agents” (The Ohio State University Research Foundation, priority 2010, dated 2012).
pIC50: −log10 of the molar value.

Experiments:
[1] = system: subcutaneous Hep3B tumors; experiment: Ectopic (subcutaneous) Hep3B xenograft tumor model; assay type: in vivo, athymic nude mice
Description: (§1) Xenograft tumor models. Ectopic tumors were established in athymic nude mice by subcutaneous injection of 1×10^6 Hep3B cells in a total volume of 0.1 ml of serum-free medium containing 50% Matrigel. Mice with established tumors were randomized to five groups (n=8) that received daily i.p. injections of OSU-2S or FTY720 at 5 or 10 mg/kg, or the vehicle. Tumor burdens were determined weekly using calipers (volume=width^2×length×0.52). Body weights were measured weekly. At the study endpoint, tumors were harvested, snap-frozen and stored at −80° C. for biomarker analysis. Blood and tissues were collected for evaluation of complete blood counts, serum chemistry and histopathology.

normal human hepatocytes = experiment: MTT cell viability assay, normal hepatocytes; assay type: cell-based; details: 24 h
Description: (§2) Cell lines, culture and reagents. The HCC cell lines Hep3B, PLC5 and Huh7, as well as primary nonmalignant human hepatocytes were used in this study. Cancer cells were cultured in Dulbecco's Modified Eagle's medium (DMEM) supplemented with 10% fetal bovine serum (FBS). Hepatocytes were maintained in defined Hepatocyte Culture Medium. […] Various polyclonal and monoclonal antibodies were used for western blotting, immunocytochemical, and flow cytometric analyses.
(§3) Cell viability assay. Cell viability was assessed by 3-(4,5-dimethylthiazol-2-yl)-2,5-diphenyl-2H-tetrazolium bromide (MTT) assays in six replicates. Cells were seeded (4,000 cells/well; 96-well plate) for 24 h and treated with test agents in 5% FBS-supplemented DMEM. After treatment, cells were incubated in medium containing 0.5 mg/ml MTT (37° C., 2 h). Reduced MTT was dissolved in DMSO (200 μL/well) and absorbances measured at 570 nm.

[2] = target: T1, PP2A (Serine/Threonine Phosphatase 2A) (Homo sapiens, UniProt P67775); experiment: PP2A functional enzymatic assay (malachite green) in primary CLL cells; assay type: cell-based; details: 24 hrs, OSU-2S 8 μM, untreated about 0.07
T1 construct: endogenous in cells; host or cells: primary CLL cells; Ramos cells
T1 sequence (P67775 whole entry): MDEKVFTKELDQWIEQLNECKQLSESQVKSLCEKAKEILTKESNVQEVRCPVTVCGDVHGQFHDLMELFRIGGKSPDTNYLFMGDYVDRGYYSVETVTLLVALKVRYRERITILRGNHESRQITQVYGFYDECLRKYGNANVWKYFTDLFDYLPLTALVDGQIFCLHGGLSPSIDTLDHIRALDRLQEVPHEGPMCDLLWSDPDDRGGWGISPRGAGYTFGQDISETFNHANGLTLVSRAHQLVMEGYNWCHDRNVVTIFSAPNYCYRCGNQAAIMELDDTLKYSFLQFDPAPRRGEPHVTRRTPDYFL
Description: The ability of OSU-2S to induce PP2A (Serine/Threonine Phosphatase 2A) activity in primary CLL cells was measured at 24 hrs by a functional enzymatic assay. Lysates made from OSU-2S 8 μM treated cells are used to immunoprecipitate PP2Ac which was then used as an enzyme to cleave the specific phosphor-peptide substrate in the functional assay. The cleaved free phosphates were measured by adding malachite green detection solutions and measuring the absorbance at A650 nm. Ramos cells were also included, and FTY720 was used as the control.

Huh7 cells = experiment: MTT cell viability assay, Huh7; assay type: cell-based; details: Homo sapiens, Huh-7, 24 h of treatment, MTT
Description: as §2, §3

human recombinant SphK2 = target: T2, human recombinant SphK2 (Homo sapiens, UniProt Q9NRA0); experiment: Phosphorylation of FTY720 and OSU-2S by SphK2 (radiometric, TLC); assay type: biochemical; details: 5 μM compound, [γ-32P]-ATP, 37° C., 60 min, TLC/autoradiography
T2 construct: purchased Cayman
T2 sequence (Q9NRA0 1-654): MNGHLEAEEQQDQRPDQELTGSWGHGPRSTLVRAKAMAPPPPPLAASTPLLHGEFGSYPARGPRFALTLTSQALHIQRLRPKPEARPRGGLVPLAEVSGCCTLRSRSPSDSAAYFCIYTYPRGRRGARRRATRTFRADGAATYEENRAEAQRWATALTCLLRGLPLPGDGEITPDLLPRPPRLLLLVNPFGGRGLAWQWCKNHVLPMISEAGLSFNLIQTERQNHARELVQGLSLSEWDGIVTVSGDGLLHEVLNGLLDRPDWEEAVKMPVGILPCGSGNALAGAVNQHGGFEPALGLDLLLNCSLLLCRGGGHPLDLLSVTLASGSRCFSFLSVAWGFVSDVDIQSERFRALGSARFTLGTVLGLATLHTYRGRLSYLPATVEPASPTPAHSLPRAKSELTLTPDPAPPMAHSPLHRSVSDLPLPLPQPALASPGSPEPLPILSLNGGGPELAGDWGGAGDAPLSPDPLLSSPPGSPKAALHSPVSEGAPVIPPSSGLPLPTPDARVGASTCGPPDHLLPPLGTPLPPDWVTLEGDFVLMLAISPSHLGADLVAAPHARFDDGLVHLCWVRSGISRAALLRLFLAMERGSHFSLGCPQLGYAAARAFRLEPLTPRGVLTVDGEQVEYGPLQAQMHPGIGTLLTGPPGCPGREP
Description: Phosphorylation of FTY720 and OSU-2S by SphK2. Analysis of SphK2-mediated phosphorylation was performed as reported with modifications. Prieschl […] J Exp Med, 190, 1-8 (1999). Briefly, 5 μM FTY720 or OSU-2S was incubated with 0.75 μg/ml human recombinant SphK2 (Cayman), 5 μCi [γ-^32P]-ATP, and 0.5 mM cold ATP at 37° C. for 60 min. The reaction products were separated by silica-gel thin layer chromatography (TLC) and visualized by autoradiography.

Hep3B cells = experiment: MTT cell viability assay, Hep3B; assay type: cell-based; details: Homo sapiens, 24 h of treatment
Description: as §2, §3

[3] = system: orthotopic Hep3B-luc tumors; experiment: Orthotopic Hep3B-luc xenograft tumor model; assay type: in vivo, athymic nude mice; design: dose or concentration left out as unconfirmed; details: end of treatment (42 days)
From the text: Orthotopic tumors were established by direct intrahepatic injection of luciferase-expressing Hep3B (Hep3B-luc) cells as described. Omar et al., Mol Pharmacol, 76, 957-968 (2009). The establishment and growth of tumors were monitored by bioluminescent imaging using the IVIS™ imaging system (Xenogen, Alameda, Calif.). […] All animal use described in this manuscript was done in accordance with protocols approved by The Ohio State University Institutional Animal Care and Use Committee.

[4] = system: PTEN, p53, Mcl-1 in Huh7 cells; experiment: Western blot of signaling markers in drug-treated Huh7 cells; assay type: cell-based; details: 24 h
Description: Immunoblotting. Immunoblotting of biomarkers in cell lysates and tumor tissue homogenates was carried out according to a published procedure. Hung et al., Cancer Res., 68, 1204-1212 (2008).

[5] = Toxicity evaluation in tumor-bearing mice (body weight, blood counts, histopathology); assay type: in vivo, athymic nude mice; details: for mice with abdominal adhesions with varying amounts of peritonitis: of six mice per group examined histologically
Description: as §1
Orthotopic tumors were established by direct intrahepatic injection of luciferase-expressing Hep3B (Hep3B-luc) cells as described. Omar et al., Mol Pharmacol, 76, 957-968 (2009). The establishment and growth of tumors were monitored by bioluminescent imaging using the IVIS™ imaging system (Xenogen, Alameda, Calif.). Two weeks after tumor cell injection, animals with established tumors were randomized to three groups (n=3) that received daily i.p. injections of FTY720 or OSU-2S at 5 mg/kg, or vehicle for 42 days and were imaged weekly. All animal use described in this manuscript was done in accordance with protocols approved by The Ohio State University Institutional Animal Care and Use Committee.

## CCC[C@@](N)(CO)CCc1ccc(OCCCCCC(C)C)cc1 [OSU-2S, (S)-2-amino-2-(4-[(6-methylheptyl)-oxy]phenethyl)pentan-1-ol]
[1]; 5 mg/kg, i.p. once daily, P<0.001
  ectopic Hep3B tumor growth vs vehicle control: completely suppressed
[1]; 10 mg/kg i.p. daily, end of 42-day treatment
  reduction of tumor volume: more than 50%
[1]; Hep3B tumor tissue homogenates, Western blot
  intratumoral biomarkers of drug activity: PKCδ and caspase-3 were activated
Normal human hepatocytes
  sensitivity of normal human hepatocytes relative to malignant cells: resistant
[2]
  PP2A activity, absorbance at A650 nm: about 0.20
Huh7 cells
  pIC50: 5.62
Human recombinant SphK2
  phosphorylation by recombinant SphK2: not phosphorylated
Hep3B cells
  pIC50: 5.62
[3]
  reduction in bioluminescent intensity: 80%
[4]
  effect on expression levels of PTEN, p53, or Mcl-1: neither OSU-2S nor FTY720 had an appreciable effect
[5]; 5 mg/kg
  mice with abdominal adhesions with varying amounts of peritonitis: all
[5]; 10 mg/kg
  mice with abdominal adhesions with varying amounts of peritonitis: all
[5]; ectopic tumor-bearing mice at study endpoint
  lymphocyte levels: normal
[5]; ectopic tumor-bearing mice, daily i.p. 5 or 10 mg/kg
  overt toxicity and body weight: no overt signs of toxicity and no loss of body weight
[5]; mice after 42 days of treatment
  total lymphocyte counts: no decrease
[5]; orthotopic tumor-bearing mice, daily i.p., 42 days
  tolerability (stable body weights): well tolerated
